{"source": "patent US20190046490A1", "about": "“METHODS OF TREATING LACTOSE INTOLERANCE” (Nogra Pharma Limited, priority 2016, published 2019)", "key": {"[1]": {"system": "LCT mRNA", "experiment": "Quantitative PCR of LCT mRNA expression in Caco-2 cells", "assay_type": "cell-based, human", "details": "for LCT mRNA expression relative to control (qPCR): 24 hours, normalized to GAPDH", "method": "(§1) Caco-2 (colonic adenocarcinoma) cells were grown in Dulbecco's Modified Eagle's Medium (DMEM, Invitrogen, Life Technologies, Cergy-Pontoise, France) supplemented with 20% foetal calf serum (FCS, Dutscher, Brumath, France), 1% penicillin-streptomycin (5 ml/l) (Invitrogen, Life technologies) and 1% non-essential amino acids (5 ml/l) (Invitrogen, Life technologies). All cell lines were cultured as confluent monolayers at 37° C. in a controlled, 5% CO2 atmosphere.\n(§2) For cell stimulations, 1×10^6 cells per well were seeded in 6-well plates. Cells were serum deprived for 16 hours prior to stimulation in order to synchronize the cells. Cells were treated with GED (Nogra Pharma Ltd, Ireland), pioglitazone (1 μM, Sigma-Aldrich) or CLA (various concentrations, Sigma-Aldrich). When necessary, the DMSO vehicle (Sigma-Aldrich) was used as control. After 24 hours of stimulation, cells were washed three times with sterile PBS before RNA extraction. Cell stimulations were performed in 4 replicates for microarray analysis and in 3, 4 or 6 replicates for other stimulations.\n(§3) Cells were lysed with lysis buffer (RA1, Macherey-Nagel) containing 1% β-mercaptoethanol. Total RNA was extracted with a Nucleospin RNA kit (Macherey-Nagel, Hoerdt, France). After RNAse inactivation, total RNA was cleaned of genomic DNA traces by DNAse treatment and eluted in RNAse-free, DEPC-water. The purity of the RNA was evaluated by UV spectroscopy on a Nanodrop system (Nyxor Biotech, Paris, France) from 220 to 350 nm. Before microarray experiments, RNAs were also profiled on an Agilent 2100 bioanalyzer. One μg of total RNA with a minimum concentration of 50 ng/μl was used in the microarray and qRT-PCR analysis.\n(§4) Expression of genes of interest was quantified by quantitative PCR (qPCR) of corresponding reverse transcribed mRNA. One μg of total RNA was reverse-transcribed into cDNA using the High Capacity cDNA Archive kit (Applied Biosystems). Amplification was performed using an ABI PRISM 7000 sequence detection system (Applied Biosystem) using Power SYBR® Green PCR master Mix (Applied Biosystem). Primer pairs for each human transcript were chosen with qPrimer depot software (at primerdepot.nci.nih.gov.). Quantification of qPCR signals was performed using ΔCt relative quantification method using GAPDH as a reference gene for human and rat samples and β-Actin for mouse samples. Values were represented in terms of relative quantity of mRNA level variation or fold increase compared to control conditions."}, "[2]": {"system": "LCT gene", "experiment": "Transcriptome microarray analysis of LCT mRNA expression in Caco-2 cells treated with PPARγ modulators", "assay_type": "cell-based, human", "details": "vs unstimulated cells", "method": "as §1, §2, §3\nDual-colour gene expression microarrays were used to compare the cRNA from the samples. 44,000 genes were screened. The RNAs from the samples were first reverse-transcribed into cDNA (Affinity-Script RT, Agilent), which were then used as the substrate for the synthesis and amplification of cRNA by T7 RNA polymerase in the presence of cyanine 3-CTP for the CTL sample (green fluorescence) and cyanine 5-CTP for the PPAR-γ y modulator sample (red fluorescence). The two-labelled cRNAs were mixed, hybridized on the same array (G4851A Agilent 8×44K) and then scanned (with an Agilent G2505B scanner). Fluorescence was visualized after laser excitation and the relative intensities of the two fluorophores were expressed as a ratio, in order to yield the over- or under-expression status of each gene (using GeneSpring software (Agilent)). This analysis was performed for each PPAR-γ modulator."}, "[3]": {"system": "LCT activity", "experiment": "Lactase activity in Caco-2 cells (glucose oxidase method)", "assay_type": "cell-based, human", "method": "(§5) Lactase activity was evaluated by using a glucose oxidase method (Glucose Assay Kit, Sigma). This lactase assay is based on the measurement of the amount of glucose produced following the action of lactase by incubating samples with a lactose buffer solution (0.056 mol/l lactose in a 0.1 mol/l Na-maleate buffer). For Caco-2 cells, lactase activity was determined directly from the cell monolayer. After extensive washing, the cell monolayer was incubated with lactose buffer for one hour at 37° C. The supernatant was recovered, 50 μl were diluted with 100 μl of glucose oxidase reagent and incubated at 37° C. for 1 hour. The reaction was stopped with 100 μl of H2SO4 and read by spectrophotometry at 450 nm. When lactase activity was determined from intestinal sample, tissue samples were first dounce-homogenized in 0.9% NaCl on crushed ice. These homogenates were then diluted in 0.9% NaCl ( 1/500) and 50 μl of dilution were incubated with lactose buffer and used to determine lactase activity. For each experiment, the background attributed to the remaining glucose in the samples was measured by incubating cells or cell extracts in lactose-free buffer."}, "[4]": {"system": "LCT in PPARγ knock-down Caco-2 cells", "experiment": "LCT expression and activity in PPARγ knock-down Caco-2 cells (ShPPAR)", "assay_type": "cell-based, human", "details": "ShPPAR vs ShLuc Caco-2 cells, 250-1000 μM", "method": "as §4\nLactase activity was evaluated by using a glucose oxidase method (Glucose Assay Kit, Sigma). […] For Caco-2 cells, lactase activity was determined directly from the cell monolayer. […] The reaction was stopped with 100 μl of H2SO4 and read by spectrophotometry at 450 nm. When lactase activity was determined from intestinal sample, tissue samples were first dounce-homogenized in 0.9% NaCl on crushed ice. […] For each experiment, the background attributed to the remaining glucose in the samples was measured by incubating cells or cell extracts in lactose-free buffer. […]"}, "[5]": {"system": "LCT", "experiment": "LCT mRNA and LCT activity in duodenum and jejunum of rats after 5 days oral gavage", "assay_type": "in vivo, Sprague Dawley rats", "details": "oral gavage 5 days, GED 30 mg/kg/day, CLA 200 mg/kg/day", "method": "as §4, §5\n(§6) To determine whether CLA induces LCT expression and activity in vivo, Sprague Dawley rats were fed a control diet and administered either carboxymethyl cellulose (CMC; 0.5%), CLA, or GED for 5 days, after which levels of PPARγ mRNA, LCT mRNA, and LCT activity were measured. CLA was administered at 200 mg/kg/day by oral gavage, and GED was administered at 30 mg/kg/day by oral gavage (FIG. 21A)."}, "[6]": {"system": "PPARγ mRNA", "experiment": "PPARγ mRNA in duodenum and jejunum of rats after 5 days oral gavage", "assay_type": "in vivo, Sprague Dawley rats", "details": "200 mg/kg/day oral gavage 5 days", "method": "as §4, §6"}, "[7]": {"system": "Caco-2 cells", "experiment": "Glucose uptake assay (2-DG6P) in Caco-2 cells", "assay_type": "cell-based, human", "details": "1 μM, 24 h", "method": "Glucose uptake was evaluated by using the glucose uptake colorimetric assay kit (Sigma-Aldrich) according to the manufacturer's instructions. Briefly, Caco-2 cells were seeded into a 96-well plate at a density of 30,000 cells per well. Cells were serum deprived for 16 hours prior to stimulation in order to synchronize the cells. Cells were treated with GED (1 mM) or pioglitazone (1 μM) for 24 h. Cells were then washed 3 times with PBS and were glucose-starved by incubating with 100 μl of KRPH buffer (Krebs-Ringer-Phosphate-HEPES (KRPH) Buffer—20 mM HEPES, 5 mM KH2PO4, 1 mM MgSO4, 1 mM CaCl2, 136 mM NaCl, and 4.7 mM KCl, pH 7.4) containing 2% BSA for 40 minutes. 10 μl of 2-deoxyglucose (2-DG; 10 mM) was then added and incubation was continued for 20 minutes. 2-DG is taken up by the cells and phosphorylated by hexokinase to 2-DG6P, which cannot be further metabolized and accumulates in cells. Following incubation, cells were washed 3 times with PBS and lysed with 80 μl of the extraction buffer provided. The amount of 2-DG6P (which is directly proportional to glucose uptake by the cells) was determined by a colorimetric detection assay according to the manufacturer's protocol."}}, "note": "Entries after “also recorded” stand apart in the source; their conditions may differ.", "data": [{"smiles": "Nc1ccc(O)c(C(=O)O)c1", "note": "[5ASA, 5-aminosalicylic acid]", "values": [{"measurement": "LCT mRNA expression relative to control (qPCR)", "setting": "[1]; 30 mM", "result": "Significant increases; also recorded: induction"}, {"measurement": "Fold Lactase RNA", "setting": "[2]; 30 mM", "result": 8.7, "unit": "fold"}, {"measurement": "LCT activity relative to control cells", "setting": "[3]; Caco-2 cells, 30 mM", "result": "not"}]}, {"smiles": "CCCCC/C=C\\C=C\\CCCCCCCCC(=O)O", "note": "[CLA, trans-10, cis-12 conjugated linoleic acid (CLA) isomer]", "values": [{"measurement": "LCT mRNA expression relative to control (qPCR)", "setting": "[1]; 1 mM", "result": "as efficiently as 1 mM GED"}, {"measurement": "CLA-dependent induction of LCT activity in PPARγ knock-down cells", "setting": "[4]", "result": "strongly compromised"}, {"measurement": "CLA-dependent induction of LCT expression in PPARγ knock-down cells", "setting": "[4]", "result": "strongly compromised"}, {"measurement": "LCT activity in duodenal tissue compared to CMC control", "setting": "[5]", "result": "significant increase"}, {"measurement": "LCT mRNA expression in duodenal tissue relative to CMC control", "setting": "[5]", "result": "significant increase"}, {"measurement": "LCT mRNA expression in jejunal tissue relative to CMC control", "setting": "[5]", "result": "not"}, {"measurement": "increase in LCT activity over control levels, compared to 1 mM GED", "setting": "[3]; Caco-2 cells, 1 mM", "result": 2, "unit": "fold"}, {"measurement": "LCT activity in Caco-2 cells", "setting": "[3]; concentrations of 100 mM or more", "result": "significantly increased"}, {"measurement": "PPARγ mRNA expression levels in duodenum relative to CMC control", "setting": "[6]", "result": "significant increase"}, {"measurement": "PPARγ mRNA expression levels in jejunum relative to CMC control", "setting": "[6]", "result": "significant increase"}]}, {"smiles": "O=C(Nc1ccccc1)c1cc([N+](=O)[O-])ccc1Cl", "note": "[GW9662]", "values": [{"measurement": "ability of GED to induce increased LCT mRNA expression in the presence of the antagonist", "setting": "[1]; GED plus GW9662", "result": "markedly reduced"}]}, {"smiles": "CCc1ccc(CCOc2ccc(CC3SC(=O)NC3=O)cc2)nc1", "note": "(stereo not drawn) [Pioglitazone, pioglitazone]", "values": [{"measurement": "Fold Lactase RNA", "setting": "[2]; 1 μM", "result": 17.9, "unit": "fold"}, {"measurement": "Fold Lactase RNA", "setting": "[2]; 1 μM, listed as Pio", "result": 17.93, "unit": "fold"}, {"measurement": "LCT activity compared to untreated cells", "setting": "[3]; Caco-2 cells, 1 μM, vs DMSO", "result": "> 2", "unit": "fold"}, {"measurement": "glucose uptake of Caco-2 cells", "setting": "[7]", "result": "did not significantly alter"}]}]}
